Consider 13 compounds from ChEMBL document CHEMBL4118198, “Synthesis and antiviral evaluation of novel peptidomimetics as norovirus protease inhibitors” (Bioorg Med Chem Lett, 2018).

In one data set the test system is Vero. In words: Cytotoxicity against African green monkey Vero cells assessed as reduction in cell viability after 3 days by hemocytometer. The settings on record: chlorocebus sabaeus, 72 h. In kind it is cell-based.
The subject of data set [1] is Norovirus. Put plainly: Antiviral activity against Norovirus prototypic GI.1 infected in human HG23 cells assessed as inhibition of viral RNA replication after 4 days by RT-qPCR method. The format is functional, organism-based, Norovirus GI.1. (In general: Quantitative PCR measures a nucleic acid by following its amplification.)
Another data set addresses T1, Protease (Norovirus Hu/GII.4-2002/WeertE022/2002/NL, UniProt G1FEK8).
T1 sequence (G1FEK8 whole entry): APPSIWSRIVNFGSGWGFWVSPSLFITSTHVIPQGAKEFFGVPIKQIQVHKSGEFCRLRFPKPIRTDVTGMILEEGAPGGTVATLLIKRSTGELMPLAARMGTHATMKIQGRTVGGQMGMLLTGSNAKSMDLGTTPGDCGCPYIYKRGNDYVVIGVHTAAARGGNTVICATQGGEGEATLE
Put plainly: (§1) Inhibition of Norovirus prototypic GII.4 3CL protease using HiLyte Fluor 488-labelled DFELQGPK as substrate incubated for 90 mins measured every mins for 20 mins by FRET assay. On the set-up: species or system Norovirus GII.4.

Data set [2] deals with T2, Protease (Norovirus Hu/GII.4-2002/WeertE022/2002/NL) (UniProt G1FEK8).
T2 sequence (whole entry): T1 sequence (G1FEK8 whole entry)
The description is as §1. The conditions noted are these: Norovirus GII.4.

Another data set has as its system PBMC. Put plainly: Cytotoxicity against human PBMC assessed as reduction in cell viability after 6 days by trypan blue exclusion assay. In kind it is cell-based. The settings on record: 144 h.
For the next data set, the system named is Huh-7. Put plainly: Cytotoxicity against human HuH7 cells assessed as reduction in cell viability. In kind it is cell-based.
Data set [3] has as its target Nonstructural polyprotein (Norovirus Hu/GI/10360/2010/VNM) (UniProt I1U3K2). In words: (§2) Inhibition of Norovirus prototypic GI.1 3CL protease using HiLyte Fluor 488-labelled DFELQGPK as substrate incubated for 90 mins measured every mins for 20 mins by FRET assay. The conditions noted are these: Norovirus GI.1.
In data set [4] the target is Nonstructural polyprotein (Norovirus Hu/GI/10360/2010/VNM, UniProt I1U3K2). The data set is described as §2. Set-up: species or system Norovirus GI.1.
The subject of another data set is CCRF-CEM. Put plainly: Cytotoxicity against human CEM cells assessed as reduction in cell viability after 6 days by trypan blue exclusion assay. The format is cell-based. The settings on record: 144 h.
Data set [5] has as its target T2, Protease (Norovirus Hu/GII.4-2002/WeertE022/2002/NL). In words: Inhibition of Norovirus prototypic GII.4 3CL protease using HiLyte Fluor 488-labelled DFELQGPK as substrate incubated for 90 mins measured every mins for 20 mins by FRET assay relative to control. The conditions noted are these: Norovirus GII.4.
Data set [6] relates to Norovirus. Put plainly: Antiviral activity against Norovirus prototypic GI.1 infected in human HG23 cells assessed as inhibition of viral RNA replication at 10 uM after 4 days by RT-qPCR method relative to control. The conditions noted are these: HG23, 96 h. The format is functional, Norovirus GI.1.
Where [7] appears, read: Norovirus, HG23, 96 h, read-out: EC50.

Nonstructural polyprotein (Norovirus Hu/GI/10360/2010/VNM), sequence (I1U3K2 as listed by the source): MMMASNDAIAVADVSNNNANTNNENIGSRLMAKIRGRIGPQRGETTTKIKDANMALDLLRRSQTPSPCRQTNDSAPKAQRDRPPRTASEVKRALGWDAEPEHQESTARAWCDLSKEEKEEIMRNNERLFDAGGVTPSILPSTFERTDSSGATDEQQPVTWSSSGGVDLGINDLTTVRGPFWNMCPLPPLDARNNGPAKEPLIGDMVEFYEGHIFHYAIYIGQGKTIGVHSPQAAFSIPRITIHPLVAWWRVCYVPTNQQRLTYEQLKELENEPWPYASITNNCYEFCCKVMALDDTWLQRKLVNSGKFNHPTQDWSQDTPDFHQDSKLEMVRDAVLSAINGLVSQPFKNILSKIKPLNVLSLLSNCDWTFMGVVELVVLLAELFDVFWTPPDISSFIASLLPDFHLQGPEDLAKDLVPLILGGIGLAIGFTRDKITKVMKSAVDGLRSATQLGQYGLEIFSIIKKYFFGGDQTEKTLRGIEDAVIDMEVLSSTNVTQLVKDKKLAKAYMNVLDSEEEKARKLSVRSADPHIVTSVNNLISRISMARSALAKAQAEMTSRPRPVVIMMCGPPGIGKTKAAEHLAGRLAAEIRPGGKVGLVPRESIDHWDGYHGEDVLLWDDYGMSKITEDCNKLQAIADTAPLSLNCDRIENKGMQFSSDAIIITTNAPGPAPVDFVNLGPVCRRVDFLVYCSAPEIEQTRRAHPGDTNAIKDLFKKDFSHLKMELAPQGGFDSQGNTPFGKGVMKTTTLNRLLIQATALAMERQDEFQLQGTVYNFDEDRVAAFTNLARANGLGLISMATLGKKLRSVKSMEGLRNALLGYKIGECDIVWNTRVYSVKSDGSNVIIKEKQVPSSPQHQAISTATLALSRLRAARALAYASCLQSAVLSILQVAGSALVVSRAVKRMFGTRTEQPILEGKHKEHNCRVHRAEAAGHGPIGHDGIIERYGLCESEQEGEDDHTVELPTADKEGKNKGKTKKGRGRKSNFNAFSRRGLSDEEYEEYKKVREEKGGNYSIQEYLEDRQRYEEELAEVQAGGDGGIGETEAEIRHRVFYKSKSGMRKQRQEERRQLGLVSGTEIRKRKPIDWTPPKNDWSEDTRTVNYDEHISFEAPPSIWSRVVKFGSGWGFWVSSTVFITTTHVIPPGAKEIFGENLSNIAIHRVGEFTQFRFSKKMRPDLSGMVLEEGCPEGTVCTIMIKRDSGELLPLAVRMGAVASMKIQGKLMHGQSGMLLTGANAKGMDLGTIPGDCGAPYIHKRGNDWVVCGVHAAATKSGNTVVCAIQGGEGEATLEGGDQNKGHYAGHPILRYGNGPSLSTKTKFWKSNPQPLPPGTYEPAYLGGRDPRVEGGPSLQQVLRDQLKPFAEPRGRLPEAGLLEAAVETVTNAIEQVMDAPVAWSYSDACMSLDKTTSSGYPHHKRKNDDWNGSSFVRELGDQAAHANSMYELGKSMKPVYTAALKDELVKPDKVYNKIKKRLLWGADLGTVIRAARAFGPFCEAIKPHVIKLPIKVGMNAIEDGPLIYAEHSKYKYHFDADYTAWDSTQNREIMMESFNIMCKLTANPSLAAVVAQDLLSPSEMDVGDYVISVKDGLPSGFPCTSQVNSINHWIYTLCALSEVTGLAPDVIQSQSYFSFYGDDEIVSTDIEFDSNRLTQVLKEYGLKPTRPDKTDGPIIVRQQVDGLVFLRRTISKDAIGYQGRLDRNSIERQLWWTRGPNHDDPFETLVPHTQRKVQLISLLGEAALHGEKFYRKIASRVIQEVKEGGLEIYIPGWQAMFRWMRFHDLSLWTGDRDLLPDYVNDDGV
Nonstructural polyprotein, sequence (I1U3K2 whole entry): as the sequence (I1U3K2 as listed by the source) above

For the compound `CC(C)C[C@H](NC(=O)[C@H](Cc1cccc2ccccc12)NC(=O)OCc1ccccc1)C(=O)N[C@H](C=O)C[C@@H]1CCNC1=O`, the CC50 was over 100 µM with Vero, 28.4 µM with PBMC, over 10 µM with Huh-7 and 39.5 µM in the data set on CCRF-CEM. In addition, the EC90 in the data set with Norovirus [1] (Norovirus, HG23, 96 h) came out at 8.36 µM. Besides, in the data set on Norovirus [1] (setting [7]), the EC50 came to 1.13 µM. The half-maximal inhibitory concentration (IC50) on Protease was determined as 0.06 µM; in data set [4], 0.032 µM. Besides, the IC90 in [2] was found to be 0.205 µM; in data set [3], 0.248 µM.

Regarding `CC(C)C[C@H](NC(=O)[C@H](Cc1cccc2ccccc12)NC(=O)OCc1ccccc1)C(=O)N[C@@H](C[C@@H]1CCCNC1=O)C(=O)C(F)(F)F`, the CC50 in the data set on Vero was over 100 µM; in the data set with PBMC, 43.8 µM; in the data set with Huh-7 it was 11.2 µM; with CCRF-CEM, 18.3 µM. Further, the EC90 in the data set with Norovirus [1] (Norovirus, HG23, 96 h) is 2.45 µM. Further, in the data set with Norovirus [1] (setting [7]), the EC50 was 0.39 µM. The IC50 was determined as 2.63 µM on Protease and 0.654 µM in [4]. The IC90 in [2] amounted to 14 µM; in [3], 2.24 µM.

For `CC(C)C[C@H](NC(=O)[C@H](Cc1cccc2ccccc12)NC(=O)OCc1ccccc1)C(=O)N[C@H](CO)CCC(=O)N1CCC1`, the CC50 in the data set with Vero came to 8.6 µM; in the data set on PBMC, 18.4 µM; in the data set on CCRF-CEM, 2.2 µM. For the same compound, the EC90 in the data set on Norovirus [1] (Norovirus, HG23, 96 h) turned out to be 17.3 µM. For the same compound, in the data set with Norovirus [1] (setting [7]), the EC50 stood at 6.19 µM. Besides, the IC50 is 0.502 µM against Protease and over 1 µM in data set [4]. The same compound had an IC90 in data set [2] of 5.54 µM.

Take `CC(C)C[C@H](NC(=O)[C@H](Cc1cccc2ccccc12)NC(=O)OCc1ccccc1)C(=O)NC(/C=C/C=O)C[C@@H]1CCNC1=O` (some centres not stated): the CC50 was 77.7 µM in the data set with Vero, 3.9 µM in the data set with PBMC and 1.9 µM in the data set on CCRF-CEM. For the same compound, the EC90 in the data set with Norovirus [1] (Norovirus, HG23, 96 h) was over 10 µM. For the same compound, the EC50 in the data set with Norovirus [1] (setting [7]) was 4.7 µM. In addition, the IC50 against Protease is over 100 µM; in data set [4] it was over 10 µM.

For the compound `CC(C)C[C@H](NC(=O)[C@H](Cc1cccc2ccccc12)NC(=O)OCc1ccccc1)C(=O)N[C@H](CO)CNC(=O)N1CCC1`, the inhibition in [5] was 4%. For the same compound, the CC50 with Vero is over 100 µM; with PBMC, 21.2 µM; in the data set with Huh-7, 33 µM; in the data set on CCRF-CEM, 2.2 µM. In addition, in the data set with Norovirus [1] (setting [7]), the EC50 was over 10 µM. For the same compound, the IC50 (against Protease; in [4]) was over 100 µM throughout.

Consider `CC(C)C[C@H](NC(=O)[C@H](Cc1cccc2ccccc12)NC(=O)OCc1ccccc1)C(=O)N[C@H](/C=C(\C#N)C(N)=O)C[C@@H]1CCCNC1=O`, for which the CC50 is over 100 µM with Vero, 45.4 µM with PBMC, 8.4 µM with Huh-7 and 9.1 µM in the data set with CCRF-CEM. Also, the EC90 in the data set on Norovirus [1] (Norovirus, HG23, 96 h) came to 7.82 µM. Besides, the EC50 in the data set on Norovirus [1] (setting [7]) is 0.75 µM. Besides, the IC50 on Protease came to 1.17 µM; in data set [4], 0.593 µM. In addition, the values for the IC90 in [2] and in [3] were 3.6 µM and 1.7 µM, respectively.

Turning to `CC(C)C[C@H](NC(=O)[C@H](Cc1cccc2ccccc12)NC(=O)OCc1ccccc1)C(=O)NC(C[C@@H]1CCNC1=O)C1CO1` (some centres not stated), the results for the CC50 in the data set on Vero, in the data set with PBMC and with CCRF-CEM were 30.4 µM, 15.7 µM and 14 µM, respectively. Besides, in the data set with Norovirus [1] (setting [7]), the EC50 is over 10 µM. Moreover, the IC50 (on Protease; in [4]) was over 100 µM throughout.

Take `CC(C)C[C@H](NC(=O)[C@H](Cc1cccc2ccccc12)NC(=O)OCc1ccccc1)C(=O)N[C@H](CS)C[C@@H]1CCNC1=O`: the CC50 was over 100 µM in the data set with Vero, over 100 µM in the data set on PBMC, 93.5 µM with Huh-7 and over 100 µM in the data set with CCRF-CEM. Moreover, the EC50 with Norovirus [1] (setting [7]) was over 10 µM. For the same compound, the IC50 (against Protease; in data set [4]) was over 10 µM in each case.

For the compound `CC(C)C[C@H](NC(=O)[C@H](Cc1cccc2ccccc12)NC(=O)OCc1ccccc1)C(=O)N[C@H](CO)Cn1ccnn1`, in the data set with Norovirus [6], the inhibition at 10 µM was found to be 99%. Further, the CC50 with Vero worked out at 3.2 µM; in the data set with PBMC it was 1.9 µM; in the data set with Huh-7, 2.7 µM; in the data set with CCRF-CEM, 0.3 µM. For the same compound, the EC50 entry with Norovirus [1] was “Nd(Toxic)”. Besides, the IC50 was over 10 µM on Protease and over 1 µM in data set [4].

For the compound `CC(C)C[C@H](NC(=O)[C@H](Cc1cccc2ccccc12)NC(=O)OCc1ccccc1)C(=O)N[C@@H](C[C@@H]1CCCNC1=O)C(O)S(=O)(=O)O` (some centres not stated), the CC50 was over 100 µM in the data set with Vero, 43.8 µM in the data set on PBMC, 11.2 µM with Huh-7 and 18.3 µM in the data set with CCRF-CEM. Also, the EC90 in the data set on Norovirus [1] (Norovirus, HG23, 96 h) is 2.45 µM. The EC50 in the data set on Norovirus [1] (setting [7]) was determined as 0.39 µM. In addition, the IC50 on Protease stood at 2.63 µM; in data set [4], 0.654 µM. Further, the IC90 is 14 µM in data set [2] and 2.24 µM in data set [3].

Regarding `CC(C)C[C@H](NC(=O)[C@H](Cc1cccc2ccccc12)NC(=O)OCc1ccccc1)C(=O)N[C@H](CCl)C[C@@H]1CCCNC1=O`, the cytotoxic concentration (CC50) worked out at 51.7 µM with Vero, 75 µM with PBMC and 26.6 µM with CCRF-CEM. Moreover, the EC50 with Norovirus [1] (setting [7]) is over 10 µM. In addition, at Protease, the IC50 is over 100 µM.

Consider `CC(C)C[C@H](NC(=O)[C@H](Cc1cccc2ccccc12)NC(=O)OCc1ccccc1)C(=O)NC(C[C@@H]1CCNC1=O)C1OC1S(C)(=O)=O` (some centres not stated), for which the CC50 in the data set on Vero is over 100 µM; with PBMC it was over 100 µM; with CCRF-CEM, 63.9 µM. The EC90 in the data set on Norovirus [1] (Norovirus, HG23, 96 h) is over 20 µM. For the same compound, the EC50 with Norovirus [1] (setting [7]) is 4.33 µM. The IC50 against Protease was 30 µM; in data set [4] it was over 10 µM. For the same compound, in data set [2], the IC90 was over 100 µM.

As to `CC(C)C[C@H](NC(=O)[C@H](Cc1cccc2ccccc12)NC(=O)OCc1ccccc1)C(=O)N[C@H](C=O)C[C@@H]1CCCNC1=O`, the CC50 amounted to 19.8 µM in the data set with Vero, 23.6 µM in the data set with PBMC, 25.7 µM with Huh-7 and 31.6 µM with CCRF-CEM. The EC90 in the data set with Norovirus [1] (Norovirus, HG23, 96 h) was 0.92 µM. Moreover, the EC50 with Norovirus [1] (setting [7]) was determined as 0.42 µM. For the same compound, the IC50 worked out at 0.15 µM on Protease and 0.08 µM in [4]. Further, the IC90 in data set [2] was 1.19 µM; in data set [3], 0.155 µM.

One may read the CC50 as the concentration that lowers cell viability or growth by half. What is called EC90 is the point of the concentration-response curve where the effect stands at 90%. Usually EC50 stands for the midpoint of the concentration-response curve. Broadly, the IC50 is the concentration needed to halve the response being measured. Usually IC90 stands for the concentration needed for an effect of 90%. For orientation: inhibition means the drop in the measured response relative to a control, in per cent.
